Read-outs that look alike come from different tables or passages of the source.
Key:
brain levels of GABA = settings: known compounds, literature; cited from earlier work
GABA-T [1] = settings: known compounds, literature; cited from earlier work
GABA-T [2] = test: Biochemical tests for irreversible inhibition of GABA-T; settings: biochemical / biological tests
[3] = Toxicity (lethality) after i.p. or oral administration to mice; settings: for No. of dead animals Day 4: Example 5 Part B
Experimental: A. The toxicity of (S)-allenyl GABA and (R,S)-allenyl GABA was determined after i.p. administration to male mice. The mice were observed up to eight days after injection.
B. The toxicity of (S)-allenyl GABA ("S") and (R,S)-allenyl GABA ("R,S") was determined as in Part A after both oral and i.p. administration.

GABA levels in the brain = test: GABA level in mouse brain after a single i.p. or oral dose; format: in vivo, mice; settings: for GABA Level (calculated as percent of control): 6 h
Experimental: […] […] The other half of the animals are observed for up to 12 days for toxicity (as indicated by weight loss and deaths). Control animals receive an injecion of the vehicle only.
The brains are removed from the dead mice and are divided into two portions by sagittal section. One half is used for the measurement of GABA-T activity while the other is used for measuring GABA content. […] GABA content is measured by perchloric acid or trichloroacetic acid extracts using an amino acid analyzer equiped with a fluorescence detector.
(§1) B. The procedure of Part A is repeated using both oral and i.p. doses of (R,S)-allenyl GABA.

GABA-T [4] = test: GABA-T activity in mouse brain after a single i.p. or oral dose; format: in vivo, mice; settings: for GABA-T Activity (calculated as percent inhibition): 6 h, Table 2
Experimental: Male albino CD1 mice each weighing approximately 34 g at commencement of the test are given an i.p. injection of the test compound in aqueous solution daily for seven consecutive days. Half of the animals are killed by decapitation 24 hours after the last dose fo the test compound. The other half of the animals are observed for up to 12 days for toxicity (as indicated by weight loss and deaths). Control animals receive an injecion of the vehicle only.
The brains are removed from the dead mice and are divided into two portions by sagittal section. One half is used for the measurement of GABA-T activity while the other is used for measuring GABA content. The GABA-T activity is measured using known methods as described by M. Jung et al., J.Neurochem., 28, 717 (1977) and 29, 797 (1977). GABA content is measured by perchloric acid or trichloroacetic acid extracts using an amino acid analyzer equiped with a fluorescence detector.
A. The procedure of Example 3 is repeated using a single i.p. dose of the test compound and killing the mice 6 hours after the i.p. injection.
as §1

For C#CC(N)CCC(=O)O (stereo not drawn) [4-aminohex-5-ynoic acid], the “elevation of brain levels of GABA” value (brain levels of GABA) is given as “elevate brain levels of GABA” and the “irreversible inhibition of GABA-T” value (GABA-T [1]) is given as “irreversible inhibitors of GABA-T”.
In the case of C=C=C[C@H](N)CCC(=O)O [(R)-allenyl GABA], the “irreversible inhibition of GABA-T” value (GABA-T [2]) was “not an irreversible inhibitor of GABA-T” and the “irreversible inhibition of GABA-T” value (GABA-T [2]; listed as (R)(-)-isomer) was “not active”.
With C=C=C[C@@H](N)CCC(=O)O [(S)-allenyl GABA, (S)-4-amino-hepta-5,6-dienoic acid] the “irreversible inhibition of GABA-T” value (GABA-T [2]) was “irreversible inhibitor of GABA-T”, the “No. of dead animals” value ([3]; i.p., 250 mg/kg, Day 1) was 0/5 and the “No. of dead animals” value ([3]; i.p., 250 mg/kg, Day 2) was 0/5. The “No. of dead animals” value ([3]; i.p., 250 mg/kg, Day 3) was 0/5, the “No. of dead animals” value ([3]; i.p., 250 mg/kg, Day 4) was 0/5 and the “No. of dead animals” value ([3]; i.p., 250 mg/kg, Day 8) was 0/5. For the same molecule, the “No. of dead animals” value ([3]; i.p., 375 mg/kg, Day 1) was 0/5, the “No. of dead animals” value ([3]; i.p., 375 mg/kg, Day 2) was 0/5 and the “No. of dead animals” value ([3]; i.p., 375 mg/kg, Day 3) was 0/5. The “No. of dead animals” value ([3]; i.p., 375 mg/kg, Day 4) was 0/5, the “No. of dead animals” value ([3]; i.p., 375 mg/kg, Day 8) was 0/5 and the “No. of dead animals” value ([3]; i.p., 500 mg/kg, Day 1) was 0/5. The “No. of dead animals” value ([3]; i.p., 500 mg/kg, Day 2) was 0/5, the “No. of dead animals” value ([3]; i.p., 500 mg/kg, Day 3) was 0/5 and the “No. of dead animals” value ([3]; i.p., 500 mg/kg, Day 4) was 0/5. For the same molecule, the “No. of dead animals” value ([3]; i.p., 500 mg/kg, Day 8) was 0/5, the “No. of dead animals” value ([3]; i.p., 750 mg/kg, Day 1) was 0/5 and the “No. of dead animals” value ([3]; i.p., 750 mg/kg, Day 2) was 0/5. For the same molecule, the “No. of dead animals” value ([3]; i.p., 750 mg/kg, Day 3) was 0/5, the “No. of dead animals” value ([3]; i.p., 750 mg/kg, Day 4) was 0/5 and the “No. of dead animals” value ([3]; i.p., 750 mg/kg, Day 8) was 0/5. For the same molecule, the “toxicity after i.p. administration” value ([3]; i.p., very large doses corresponding to maximal biological effects) was “non-toxic after i.p. administration of very large doses”, the “toxicity by oral administration” value ([3]; oral) was “non-toxic by oral administration” and the “No. of dead animals Day 4” value ([3]; oral, 500 mg/kg, Day 4) was 0/5. The “No. of dead animals Day 4” value ([3]; oral, 750 mg/kg, Day 4) was 1/5, the “relative potency for the elevation of GABA levels” value (GABA levels in the brain; (S) versus (R,S), single i.p. dose, Table 2) was “twice the potency of (R,S)-allenyl GABA” and the “elevation of GABA levels in the CNS” value (GABA levels in the brain; administered orally or parenterally) was “can elevate GABA levels significantly in the CNS”. The “effectiveness by oral versus i.p. route” value (GABA levels in the brain; oral vs i.p., Table 3) was “equally effective when given by the oral and i.p. routes of administration”, the “GABA Level (calculated as percent of control)” value (GABA levels in the brain; single i.p. dose 0.77 mM/kg (135.9 mg/kg), Table 2) was 540% of control and the “GABA Level (calculated as percent of control)” value (GABA levels in the brain; single i.p. dose 1.55 mM/kg (273.5 mg/kg), Table 2) was 670% of control. For the same molecule, the “GABA Level (calculated as percent of control)” value (GABA levels in the brain; single i.p. dose 3.10 mM/kg (547.2 mg/kg), Table 2) was 730% of control, the “irreversible inhibition of GABA-T in vivo” value (GABA-T [4]; in vivo) was “produce irreversible inhibition of GABA-T” and the “GABA-T Activity (calculated as percent inhibition)” value (GABA-T [4]; single i.p. dose 0.77 mM/kg (135.9 mg/kg)) was 79 percent inhibition. The “GABA-T Activity (calculated as percent inhibition)” value (GABA-T [4]; single i.p. dose 1.55 mM/kg (273.5 mg/kg)) was 92 percent inhibition and the “GABA-T Activity (calculated as percent inhibition)” value (GABA-T [4]; single i.p. dose 3.10 mM/kg (547.2 mg/kg)) was 96 percent inhibition.
